Measurements reported in US20090043129A1 (priority 2005, published 2009).
Where two headings read alike, the source gives them in different places.

How the values were obtained:
[1] = target: T1, Fatty Acid Amide Hydrolase (FAAH) (Rattus norvegicus, UniProt P97612); test: biochemical
T1 sequence (P97612 1-579): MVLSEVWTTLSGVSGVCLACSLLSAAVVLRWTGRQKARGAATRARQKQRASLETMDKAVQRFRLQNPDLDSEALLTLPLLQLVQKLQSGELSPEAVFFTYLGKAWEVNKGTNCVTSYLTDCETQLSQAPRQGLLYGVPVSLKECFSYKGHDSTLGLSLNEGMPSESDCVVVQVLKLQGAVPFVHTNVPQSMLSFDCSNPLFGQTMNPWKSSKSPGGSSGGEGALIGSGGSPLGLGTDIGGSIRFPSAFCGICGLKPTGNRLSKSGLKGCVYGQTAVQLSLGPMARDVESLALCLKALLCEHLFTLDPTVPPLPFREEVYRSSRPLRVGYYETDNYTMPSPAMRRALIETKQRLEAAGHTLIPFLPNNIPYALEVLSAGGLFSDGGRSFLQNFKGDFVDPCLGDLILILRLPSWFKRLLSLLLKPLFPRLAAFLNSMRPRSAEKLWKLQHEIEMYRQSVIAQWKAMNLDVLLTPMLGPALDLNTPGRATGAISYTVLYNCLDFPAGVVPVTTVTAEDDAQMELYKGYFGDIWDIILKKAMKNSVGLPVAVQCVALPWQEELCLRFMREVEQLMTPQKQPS
Protocol: Assay for Fatty Acid Amide Hydrolase (FAAH)
The effect of compounds on the enzymatic hydrolysis of [^14C]anandamide (6 μM) was studied using membranes prepared from rat brain incubated with increasing concentrations of compounds in 50 mM Tris-HCl, pH 9, for 30 minutes at 37° C. (Di Marzo et al., 2002). [^14C]ethanolamine produced from [^14C]anandamide hydrolysis was measured counting the scintillation of the aqueous phase after extraction of the incubation mixture with 2 volumes of CHCl3/CH3OH (2:1 by volume). […]

[2] = system: Anandamide Membrane Transporter (AMT); test: Anandamide uptake by RBL-2H3 cells; assay type: cell-based
Protocol: Assay for the Anandamide Membrane Transporter (AMT)
The effect of the compounds on the uptake of anandamide by the RBL-2H3 cells was studied as described (Di Marzo et al., 2002). Cells were incubated with [^14C]anandamide (4 μM) for 5 minutes at 37° C., in the presence or absence of varying concentrations of the inhibitors. Residual [^14C]anandamide in the incubation media after extraction with CHCl3/CH3OH (2:1 by volume) was used as a measure of the anandamide that was taken up by cells. Data are expressed as the concentration that produces 50% of inhibition of anandamide uptake (IC50) calculated with GraphPad.

CB2 = target: T2, CB2 (Rattus norvegicus, UniProt Q9QZN9); test: Preliminary selection with rat spleen membranes; assay type: binding; settings: rat brain and spleen membranes, read-out: CB2 (n.a. class, IC50 in preliminary selection)
T2 construct: from tissue; host or cells: rat spleen membranes
T2 sequence (Q9QZN9 1-360): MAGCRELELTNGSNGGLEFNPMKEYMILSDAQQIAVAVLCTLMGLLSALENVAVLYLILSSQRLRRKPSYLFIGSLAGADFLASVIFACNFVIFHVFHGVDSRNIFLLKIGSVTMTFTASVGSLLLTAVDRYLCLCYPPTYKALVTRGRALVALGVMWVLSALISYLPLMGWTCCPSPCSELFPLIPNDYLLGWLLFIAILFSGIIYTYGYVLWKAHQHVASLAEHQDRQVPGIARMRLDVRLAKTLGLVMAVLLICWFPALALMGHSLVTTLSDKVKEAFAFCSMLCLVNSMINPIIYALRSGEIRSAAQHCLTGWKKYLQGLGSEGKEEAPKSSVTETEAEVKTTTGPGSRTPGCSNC

[3] = target: human recombinant CB2 receptor (Homo sapiens, UniProt P34972); test: CB2 binding, [3H]CP55,940 displacement, membranes from transfected COS cells; design: purchased Perkin-Elmer; host or cells: COS cells; settings: for Ki: recombinant human CB2, COS cell membranes
[4] = target: human recombinant CB1 receptor (Homo sapiens, UniProt P21554); assay type: binding; design: purchased Perkin-Elmer; host or cells: COS cells
[5] = rat brain membranes, read-out: FAAH (n.a. class)
[6] = anandamide uptake, read-out: AMT IC50
[7] = recombinant human CB1, COS cell membranes

Sequence of human recombinant CB1 receptor (P21554 whole entry): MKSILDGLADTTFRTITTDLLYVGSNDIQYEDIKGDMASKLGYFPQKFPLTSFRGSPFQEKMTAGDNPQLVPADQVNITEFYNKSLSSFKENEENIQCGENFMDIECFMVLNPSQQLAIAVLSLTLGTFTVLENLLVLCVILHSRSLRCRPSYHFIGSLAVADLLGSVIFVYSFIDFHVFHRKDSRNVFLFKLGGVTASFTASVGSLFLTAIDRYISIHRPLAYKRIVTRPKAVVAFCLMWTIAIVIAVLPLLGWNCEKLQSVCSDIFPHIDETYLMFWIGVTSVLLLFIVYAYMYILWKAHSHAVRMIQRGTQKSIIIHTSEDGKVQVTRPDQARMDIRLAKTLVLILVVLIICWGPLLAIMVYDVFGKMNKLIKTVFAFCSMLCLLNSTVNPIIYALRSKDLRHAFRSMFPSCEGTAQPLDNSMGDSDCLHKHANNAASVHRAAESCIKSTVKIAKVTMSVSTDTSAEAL
Sequence of human recombinant CB2 receptor (P34972 whole entry): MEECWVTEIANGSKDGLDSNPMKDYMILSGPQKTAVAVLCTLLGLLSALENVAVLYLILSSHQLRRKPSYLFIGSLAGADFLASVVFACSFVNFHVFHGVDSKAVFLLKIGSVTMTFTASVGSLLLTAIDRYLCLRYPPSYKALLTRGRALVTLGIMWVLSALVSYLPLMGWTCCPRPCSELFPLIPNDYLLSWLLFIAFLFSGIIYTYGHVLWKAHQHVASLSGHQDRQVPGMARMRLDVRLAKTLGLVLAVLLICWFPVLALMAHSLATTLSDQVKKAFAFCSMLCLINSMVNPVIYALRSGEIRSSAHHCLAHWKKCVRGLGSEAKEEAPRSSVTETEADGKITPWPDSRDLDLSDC

In the case of `CCCCCCCCCCCCCCCc1cccc(OCCCCCC(=O)NCCO)c1` [Compound 15, 6-(3-Pentadecyl-phenoxy)-hexanoic acid (2-hydroxy-ethyl)-amide], the IC50 [1, 5] is reported as > 10 µM, the melting point is reported as 62.7 °C and the IC50 [2, 6] is reported as > 25 µM.

`CCCCCCCCCCCCCCCc1cccc(OCCCCCCCCCCC(=O)NCCO)c1` [Compound 18, 11-(3-Pentadecyl-phenoxy)-undecanoic acid (2-hydroxy-ethyl)-amide] gave a melting point of 83 to 85 °C.

With `CCCCCCc1ccc(O)cc1OCCCCCC(=O)Nc1ccc(O)cc1` the melting point was 106 °C.

With `CCCCCCCCCCCCCCCc1cccc(OCCCCCC(=O)NC2CC2)c1` [Compound 16, 6-(3-Pentadecyl-phenoxy)-hexanoic acid cyclopropylamide] the IC50 [1] was > 10 µM and the melting point was 67.8 °C.

In the case of `CCCCCc1cc(O)cc(OCCCCCCCCCCCCCCCC(=O)NC2CC2)c1` [Compound 28, 16-(3-Hydroxy-5-pentyl-phenoxy)-hexadecanoic acid cyclopropylamide], the IC50 (CB2) is reported as > 10 µM and the melting point is reported as 91 °C.

In the case of `O=C(CCCCCCCCCCCCCCCOc1cccc(O)c1)NCCO` [Compound 36, 16-(3-Hydroxy-phenoxy)-hexadecanoic acid (2-hydroxy-ethyl)-amide], the IC50 (CB2) is reported as > 10 µM and the melting point is reported as 94.5 °C.

With `CCCCCCc1ccc(O)cc1OCCCCCCCCCCC(=O)NCCO` [Compound 51, 11-(2-Hexyl-5-hydroxy-phenoxy)-undecanoic acid (2-hydroxy-ethyl)-amide] the Ki [3] was 0.42 µM, the IC50 [1] was > 10 µM and the melting point was 75.4 °C. For the same compound, the IC50 [2, 6] was > 25 µM.

With `CCCCCCCCCCCCCCCc1cccc(OCCCCCC(=O)Nc2ccc(O)cc2)c1` [Compound 17, 6-(3-Pentadecyl-phenoxy)-hexanoic acid (4-hydroxy-phenyl)-amide] the IC50 [1, 5] was > 10 µM, the melting point was 103.2 °C and the IC50 [2, 6] was > 25 µM.

With `CCCCCCc1ccc(OCCCCCCCCCCC(=O)NC2CC2)cc1O` [Compound 43, 11-(3-Hydroxy-4-hexyl-phenoxy)-undecanoic acid cyclopropylamide] the “selectivity for CB2 with respect to the CB1 receptors” value ([3]; CB1 Ki / CB2 Ki) was “at least 26 times”, the Ki [3] was 0.35 µM and the IC50 [1] was > 10 µM. For the same compound, the IC50 [2, 6] was > 25 µM.

`CCCCCCCCCCCCCCCc1cccc(OCCCCCCCCCCC(=O)Nc2ccc(O)cc2)c1` [Compound 20, 11-(3-Pentadecyl-phenoxy)-undecanoic acid (4-hydroxy-phenyl)-amide] showed a melting point of 107 °C.

For `CCCCCc1cc(O)cc(OCCCCCCCCCCCCCCCC(=O)NCCO)c1` [Compound 27, 16-(3-Hydroxy-5-pentyl-phenoxy)-hexadecanoic acid (2-hydroxy-ethyl)-amide], the Ki [4, 7] was 12.5 µM, the IC50 (CB2) was > 10 µM and the melting point was 84 to 85 °C.

For `CCCCCc1cc(O)cc(OCCCCCC(=O)NCCO)c1` [Compound 21, 6-(3-Hydroxy-5-pentyl-phenoxy)-hexanoic acid (2-hydroxy-ethyl)-amide], the IC50 (CB2) was > 10 µM and the IC50 [1] was > 10 µM.

In the case of `CCCCCCc1ccc(OCCCCCCCCCCC(=O)NCCO)cc1O` [Compound 42, 11-(3-Hydroxy-4-hexyl-phenoxy)-undecanoic acid (2-hydroxy-ethyl)-amide], the Ki [3] is reported as 2.7 µM, the IC50 [1, 5] is reported as > 10 µM and the melting point is reported as 85.3 °C. The IC50 ([2]; read-out: AMT (n.a. class)) was > 10 µM.

Work on `CCCCCCc1ccc(OCCCCCC(=O)Nc2ccc(O)cc2)cc1O` yielded a melting point of 128.4 °C.

With `CCCCCc1cc(O)cc(OCCCCCCCCCCCCCCCC(=O)Nc2ccc(O)cc2)c1` [Compound 29, 16-(3-Hydroxy-5-pentyl-phenoxy)-hexadecanoic acid (4-hydroxy-phenyl)-amide] the IC50 (CB2) was > 10 µM and the melting point was 89.5 °C.

For `O=C(CCCCCCCCCCCCCCCOc1cccc(O)c1)NC1CC1` [Compound 37, 16-(3-Hydroxy-phenoxy)-hexadecanoic acid cyclopropylamide], the Ki [4, 7] was 4.25 µM, the IC50 (CB2) was > 10 µM and the melting point was 105.6 °C.

Work on `CCCCCCc1ccc(O)cc1OCCCCCCCCCCCCCCCC(=O)NC1CC1` [Compound 55, 16-(2-Hexyl-5-hydroxy-phenoxy)-hexadecanoic acid cyclopropylamide] yielded a Ki [4] of 5.5 µM, a Ki [3] of 2.49 µM and a melting point of 72.8 °C.

With `CCCCCc1cc(O)cc(OCCCCCC(=O)NC2CC2)c1` [Compound 22, 6-(3-Hydroxy-5-pentyl-phenoxy)-hexanoic acid cyclopropylamide] the Ki [3] was 0.96 µM and the IC50 [1] was > 10 µM.

For `O=C(CCCCCCCCCCCCCCCOc1cccc(O)c1)Nc1ccc(O)cc1` [Compound 38, 16-(3-Hydroxy-phenoxy)-hexadecanoic acid (4-hydroxy-phenyl)-amide], the Ki [4, 7] was 5 µM.

For `CCCCCCc1ccc(O)cc1OCCCCCC(=O)NCCO` [Compound 48, 6-(2-Hexyl-5-hydroxy-phenoxy)-hexanoic acid (2-hydroxy-ethyl)-amide], the IC50 [1, 5] was > 10 µM.

In the case of `CCCCCc1cc(O)cc(OCCCCCC(=O)Nc2ccc(O)cc2)c1` [Compound 23, 6-(3-Hydroxy-5-pentyl-phenoxy)-hexanoic acid (4-hydroxy-phenyl)amide], the IC50 [1] is reported as > 10 µM and the melting point is reported as 69.2 °C.

In the case of `O=C(CCCCCOc1cccc(O)c1)NCCO` [Compound 30, 6-(3-Hydroxy-phenoxy)-hexanoic acid (2-hydroxy-ethyl)-amide], the IC50 [1] is reported as > 10 µM.

In the case of `CCCCCCc1ccc(O)cc1OCCCCCCCCCCCCCCCC(=O)Nc1ccc(O)cc1` [Compound 56, 16-(2-Hexyl-5-hydroxy-phenoxy)-hexadecanoic acid (4-hydroxy-phenyl)-amide], the Ki [4, 7] is reported as 3 µM, the IC50 (CB2) is reported as > 10 µM and the melting point is reported as 82.4 °C.

In the case of `CCCCCCc1ccc(OCCCCCCCCCCCCCCCC(=O)Nc2ccc(O)cc2)cc1O` [Compound 47, 16-(3-Hydroxy-4-hexyl-phenoxy)-hexadecanoic acid (4-hydroxy-phenyl)-amide], the IC50 (CB2) is reported as > 10 µM and the melting point is reported as 133.2 °C.

With `O=C(CCCCCCCCCCOc1cccc(O)c1)NC1CC1` [Compound 34, 11-(3-Hydroxy-phenoxy)-undecanoic acid cyclopropilamide] the Ki [3] was 5.4 µM and the IC50 [1] was > 10 µM.

For `CCCCCCc1ccc(O)cc1OCCCCCC(=O)NC1CC1` [Compound 49, 6-(2-Hexyl-5-hydroxy-phenoxy)-hexanoic acid cyclopropylamide], the Ki [3] was 3.57 µM and the IC50 [1] was > 10 µM.

For `O=C(CCCCCOc1cccc(O)c1)NC1CC1` [Compound 31, 6-(3-Hydroxy-phenoxy)-hexanoic acid cyclopropylamide], the IC50 [1] was > 10 µM.

In the case of `CCCCCc1cc(O)cc(OCCCCCCCCCCC(=O)Nc2ccc(O)cc2)c1` [Compound 26, 11-(3-Hydroxy-5-pentyl-phenoxy)-undecanoic acid (4-hydroxy-phenyl)-amide], the Ki [4, 7] is reported as 3 µM, the Ki [3] is reported as 1.4 µM and the IC50 [1] is reported as > 10 µM. For the same compound, the IC50 ([2]; read-out: AMT (n.a. class)) was > 10 µM.

In the case of `O=C(CCCCCCCCCCOc1cccc(O)c1)NCCO` [Compound 33, 11-(3-Hydroxy-phenoxy)-undecanoic acid (2-hydroxy-ethyl)-amide], the IC50 (CB2) is reported as > 10 µM, the IC50 [1] is reported as > 10 µM and the melting point is reported as 72.1 °C.

For `CCCCCCCCCCCCCCCc1cccc(OCCCCCCCCCCC(=O)NC2CC2)c1` [Compound 19, 11-(3-Pentadecyl-phenoxy)-undecanoic acid cyclopropylamide], the melting point was 82 °C.

In the case of `CCCCCCc1ccc(OCCCCCC(=O)NCCO)cc1O` [Compound 39, 6-(3-Hydroxy-4-hexyl-phenoxy)-hexanoic acid (2-hydroxy-ethyl)-amide], the Ki [3] is reported as 6.43 µM, the IC50 [1] is reported as > 10 µM and the melting point is reported as 71.2 °C.
